# Experimental data from patent US12622948B2 (SUN PHARMACEUTICAL INDUSTRIES LIMITED, priority 2020, dated 2026).
# Marks after values point to notes of the source that are not given here. Non-standard residues stand in square brackets, D forms with d. No end group written: not given here. Moiety A = not defined here; Nva = CCC[C@H](N)C(=O)O; Aib = CC(C)(N)C(=O)O
# Columns and labels:
# [1] = test system: type 2 diabetic mouse (db/db) model; assay: Efficacy study in db/db mice at 10 nM/kg dose (blood glucose, body weight, food intake); type: in vivo
# Procedure: The effect of compounds of present invention on blood glucose, food intake and body weight was studied in mice. This study was performed in a type 2 diabetic mouse (db/db) model. […] Baseline blood glucose was measured from all the animals. […] All the animals were administered with test items subcutaneously. […] Delta blood glucose (mM) was calculated.
# [2] = test system: type 2 diabetic mouse (db/db) model; assay: Efficacy study in db/db mice at 3 and 20 nM/kg dose (blood glucose, body weight, food intake); type: in vivo
# Procedure: The effect of compounds of present invention on blood glucose, food intake and body weight was studied on mice. This study was performed in type 2 diabetic mouse (db/db) model. […] Baseline blood glucose was measured from all the animals. All animals were administered with test items subcutaneously. […] Delta blood glucose (mM) was calculated. Body weight changes and cumulative food consumption was measured at 72 hr post treatment.
# [3] = Study 1, db/db mice, 10 nM/kg s.c.
# [4] = Study 1, db/db mice, 10 nM/kg s.c., 48 hr
# [5] = Study 1, db/db mice, 10 nM/kg s.c., 96 hr
# [6] = Study 2, db/db mice, 10 nM/kg s.c. single dose
# [7] = Study 2, db/db mice, 10 nM/kg s.c. single dose, 48 hr
# [8] = Study 2, db/db mice, 10 nM/kg s.c. single dose, 96 hr
# [9] = db/db mice, 10 nM/kg s.c., vs diabetic control
# [10] = Study 3, db/db mice, 10 nM/kg s.c. single dose
# [11] = Study 3, db/db mice, 10 nM/kg s.c. single dose, 48 hr
# [12] = Study 3, db/db mice, 10 nM/kg s.c. single dose, 96 hr
molecule,measurement,setting,value
CCC[C@H](NC(=O)[C@@H](NC(=O)[C@H](CO)NC(=O)[C@H](Cc1ccc(O)cc1)NC(=O)[C@H](CC(=O)O)NC(=O)[C@H](CO)NC(=O)[C@@H](NC(=O)[C@H](Cc1ccccc1)NC(=O)[C@@H](NC(=O)CNC(=O)[C@H](CCC(=O)O)NC(=O)C(C)(C)NC(=O)[C@@H](N)Cc1ccc(O)cc1)[C@@H](C)O)[C@@H](C)O)[C@@H](C)CC)C(=O)N[C@@H](CC(C)C)C(=O)N[C@@H](CC(=O)O)C(=O)N[C@@H](CCCCN)C(=O)N[C@H](C(=O)N[C@@H](C)C(=O)N[C@@H](CCC(N)=O)C(=O)N[C@@H](CCCCNC(=O)COCCOCCNC(=O)C(C)(C)NC(=O)CC[C@H](NC(=O)CCCCCCCCCCCCCCCCCCC(=O)O)C(=O)O)C(=O)N[C@@H](C)C(=O)N[C@@H](Cc1ccccc1)C(=O)N[C@H](C(=O)N[C@@H](CCC(N)=O)C(=O)N[C@@H](Cc1c[nH]c2ccccc12)C(=O)N[C@@H](CC(C)C)C(=O)N[C@H](C(=O)N[C@@H](C)C(=O)NCC(=O)NCC(=O)N1CCC[C@H]1C(=O)N[C@@H](CO)C(=O)N[C@@H](CO)C(=O)NCC(=O)N[C@@H](C)C(=O)N1CCC[C@H]1C(=O)N1CCC[C@H]1C(=O)N1CCC[C@H]1C(=O)N[C@@H](CO)C(N)=O)[C@@H](C)CC)C(C)C)[C@@H](C)CC [Compound 1],"Cumulative food Intake (g) 0-48 hr. vs. Baseline, Mean",[1]; [3],7.5*** g
same,"Cumulative food Intake (g) 0-96 hr. vs. Baseline, Mean",[1]; [3],13.9*** g
same,Delta Blood Glucose (mM) Mean,"[1]; Study 1, db/db mice, 10 nM/kg s.c., 0 hr (baseline)",0 mM
same,Delta Blood Glucose (mM) Mean,"[1]; Study 1, db/db mice, 10 nM/kg s.c., 4 hr",−12.7*** mM
same,Delta Blood Glucose (mM) Mean,"[1]; Study 1, db/db mice, 10 nM/kg s.c., 8 hr",−12.0*** mM
same,Delta Blood Glucose (mM) Mean,"[1]; Study 1, db/db mice, 10 nM/kg s.c., 12 hr",−10.5*** mM
same,Delta Blood Glucose (mM) Mean,"[1]; Study 1, db/db mice, 10 nM/kg s.c., 24 hr",−15.5*** mM
same,"Body Wt. Change (%) 48 hr. vs. Baseline, Mean",[1]; [4],−5.1*** %
same,Delta Blood Glucose (mM) Mean,[1]; [4],−6.7*** mM
same,Delta Blood Glucose (mM) Mean,"[1]; Study 1, db/db mice, 10 nM/kg s.c., 72 hr",−4.3*** mM
same,"Body Wt. Change (%) 96 hr. vs. Baseline, Mean",[1]; [5],−4.2*** %
same,Delta Blood Glucose (mM) Mean,[1]; [5],−2.2*** mM
same,"Cumulative food Intake (g) 0-48 hr. vs. Baseline, Mean",[1]; [6],3.8*** g
same,"Cumulative food Intake (g) 0-96 hr. vs. Baseline, Mean",[1]; [6],12.5*** g
same,Delta Blood Glucose (mM) Mean,"[1]; Study 2, db/db mice, 10 nM/kg s.c. single dose, 0 hr (baseline)",0 mM
same,Delta Blood Glucose (mM) Mean,"[1]; Study 2, db/db mice, 10 nM/kg s.c. single dose, 4 hr",−10.0*** mM
same,Delta Blood Glucose (mM) Mean,"[1]; Study 2, db/db mice, 10 nM/kg s.c. single dose, 8 hr",−13.5*** mM
same,Delta Blood Glucose (mM) Mean,"[1]; Study 2, db/db mice, 10 nM/kg s.c. single dose, 12 hr",−12.3*** mM
same,Delta Blood Glucose (mM) Mean,"[1]; Study 2, db/db mice, 10 nM/kg s.c. single dose, 24 hr",−11.5*** mM
same,"Body Wt. Change (%) 48 hr. vs. Baseline, Mean",[1]; [7],−5.1*** %
same,Delta Blood Glucose (mM) Mean,[1]; [7],−7.9*** mM
same,Delta Blood Glucose (mM) Mean,"[1]; Study 2, db/db mice, 10 nM/kg s.c. single dose, 72 hr",−4.3** mM
same,"Body Wt. Change (%) 96 hr. vs. Baseline, Mean",[1]; [8],−3.5*** %
same,Delta Blood Glucose (mM) Mean,[1]; [8],-1.4 mM
same,effect on blood glucose reduction compared with tirzepatide,"[1]; db/db mice, 10 nM/kg s.c., same concentration as tirzepatide",superior to tirzepatide
same,blood glucose reduction,[1]; [9],statistically significant blood glucose reduction upto 96 hr post treatment
same,body weight reduction,[1]; [9],statistically significant body weight reduction which was comparable to tirzepatide
same,reduction in food consumption,[1]; [9],significant reduction in food consumption which was comparable to tirzepatide
same,glucose lowering effect,[2]; 3 nM/kg and 20 nM/kg s.c.,dose dependent improvement in glucose lowering effect upto 72 hours
same,glucose lowering effect compared with tirzepatide,[2]; 3 nM/kg and 20 nM/kg s.c.,superior to tirzepatide at similar dosage
same,"Cumulative Food Intake (g), 0-72 hr, Mean",[2]; 3 nM/kg s.c.,10.2*** g
same,Delta Blood Glucose (mM) Mean,"[2]; 3 nM/kg s.c., 0 hr (baseline)",0.0 mM
same,Delta Blood Glucose (mM) Mean,"[2]; 3 nM/kg s.c., 4 hr",−8.9*** mM
same,Delta Blood Glucose (mM) Mean,"[2]; 3 nM/kg s.c., 24 hr",−9.9*** mM
same,Delta Blood Glucose (mM) Mean,"[2]; 3 nM/kg s.c., 48 hr",−5.8** mM
same,"Body weight change (%) 72 hr vs. Baseline, Mean","[2]; 3 nM/kg s.c., 72 hr",−4.0*** %
same,Delta Blood Glucose (mM) Mean,"[2]; 3 nM/kg s.c., 72 hr",-3.2 mM
same,"Cumulative Food Intake (g), 0-72 hr, Mean",[2]; 20 nM/kg s.c.,6.3*** g
same,Delta Blood Glucose (mM) Mean,"[2]; 20 nM/kg s.c., 0 hr (baseline)",0.0 mM
same,Delta Blood Glucose (mM) Mean,"[2]; 20 nM/kg s.c., 4 hr",−13.7*** mM
same,Delta Blood Glucose (mM) Mean,"[2]; 20 nM/kg s.c., 24 hr",−13.6*** mM
same,Delta Blood Glucose (mM) Mean,"[2]; 20 nM/kg s.c., 48 hr",−14.0*** mM
same,"Body weight change (%) 72 hr vs. Baseline, Mean","[2]; 20 nM/kg s.c., 72 hr",−6.2*** %
same,Delta Blood Glucose (mM) Mean,"[2]; 20 nM/kg s.c., 72 hr",−7.9*** mM
same,effect on body weight,[2]; 3 and 20 nM/kg,"significant, dose dependent and comparable to tirzepatide"
same,effect on food intake,[2]; 3 and 20 nM/kg,"significant, dose dependent and comparable to tirzepatide"
"Compound 8: SEQ ID 08 polypeptide, C-terminal Lys40 acylated with Moiety A (Y[Aib]EGTFTSDYSI[Nva]LEKIAAQEFVNWLLAGGPSSGAPPPSK(Moiety A)-NH2; reading uncertain)","Cumulative food Intake (g) 0-48 hr. vs. Baseline, Mean",[1]; [10],4.0*** g
same,"Cumulative food Intake (g) 0-96 hr. vs. Baseline, Mean",[1]; [10],13.9*** g
same,Delta Blood Glucose (mM) Mean,"[1]; Study 3, db/db mice, 10 nM/kg s.c. single dose, 0 hr (baseline)",0 mM
same,Delta Blood Glucose (mM) Mean,"[1]; Study 3, db/db mice, 10 nM/kg s.c. single dose, 4 hr",−13.6*** mM
same,Delta Blood Glucose (mM) Mean,"[1]; Study 3, db/db mice, 10 nM/kg s.c. single dose, 8 hr",−13.6*** mM
same,Delta Blood Glucose (mM) Mean,"[1]; Study 3, db/db mice, 10 nM/kg s.c. single dose, 12 hr",−13.6*** mM
same,Delta Blood Glucose (mM) Mean,"[1]; Study 3, db/db mice, 10 nM/kg s.c. single dose, 24 hr",−8.5*** mM
same,"Body Wt. Change (%) 48 hr. vs. Baseline, Mean",[1]; [11],−3.1*** %
same,Delta Blood Glucose (mM) Mean,[1]; [11],−5.6* mM
same,Delta Blood Glucose (mM) Mean,"[1]; Study 3, db/db mice, 10 nM/kg s.c. single dose, 72 hr",-1.8 mM
same,"Body Wt. Change (%) 96 hr. vs. Baseline, Mean",[1]; [12],−2.8*** %
same,Delta Blood Glucose (mM) Mean,[1]; [12],-0.6 mM
